This passage reports EC50 and Ratio results from ChEMBL document CHEMBL1130668, “Synthesis and evaluation of paclitaxel C7 derivatives: solution phase synthesis of combinatorial libraries” (1998).

In assay [1] the test system is MCF7. The assay can be described thus: Cytotoxicity activity was measured against human breast cancer cell line MCF-7; Did not inhibit proliferation at maximum concentration tested. The following applies: read-out: ED50 (the source's name). In kind it is functional.
The subject of assay [2] is MCF7. The assay is described as follows: Effect on microtubule assembly in MCF-7 cells, compared to paclitaxel (0.3 uM), given as ratio of respective ED50. Format: functional, Homo sapiens.
Assay [3] can be described thus: Cytotoxicity activity was measured against resistant human breast cancer cell line MCF-7 with respect to ED50 of paclitaxel (2200-3700 nM). In kind it is functional, MCF7.
The nature of assay [4]: Cytotoxicity activity was measured against human breast cancer cell line MCF-7 with respect to ED50 of paclitaxel (2 nM). Format: functional, MCF7.
In assay [5] the test system is MCF7. The assay can be described thus: Cytotoxicity activity was measured against resistant human breast cancer cell line MCF-7; Did not inhibit proliferation at maximum concentration tested. In kind it is functional. The note with it: read-out: ED50 (the source's name).

Each structure is given as a SMILES string.

On to `CC(=O)O[C@H]1C(=O)[C@]2(C)[C@@H](OC(=O)c3ccsc3)C[C@H]3OC[C@@]3(OC(C)=O)[C@H]2[C@H](OC(=O)c2ccccc2)[C@]2(O)C[C@H](OC(=O)[C@H](O)[C@@H](NC(=O)c3ccccc3)c3ccccc3)C(C)=C1C2(C)C`, for which, in the assay on MCF7 [1], the EC50 was more than 80 nM. Besides, the Ratio worked out at 1.7 in the assay with MCF7 [2] and 1.3 in assay [3].

Take `CCCCC(=O)O[C@H]1C[C@H]2OC[C@@]2(OC(C)=O)[C@H]2[C@H](OC(=O)c3ccccc3)[C@]3(O)C[C@H](OC(=O)[C@H](O)[C@@H](NC(=O)c4ccccc4)c4ccccc4)C(C)=C([C@@H](OC(C)=O)C(=O)[C@]12C)C3(C)C` [PACLITAXEL C7 VALERIC ACID ESTER]: the Ratio in the assay on MCF7 [2] was 0.7; in assay [4], 10; in assay [3], 0.4.

Consider `CC(=O)O[C@H]1C(=O)[C@]2(C)[C@@H](OC(C)=O)C[C@H]3OC[C@@]3(OC(C)=O)[C@H]2[C@H](OC(=O)c2ccccc2)[C@]2(O)C[C@H](OC(=O)[C@H](O)[C@@H](NC(=O)c3ccccc3)c3ccccc3)C(C)=C1C2(C)C` [PACLITAXEL C7 ACETYLCARBOXYLIC ACID ESTER], for which the Ratio with MCF7 [2] was 0.7; in assay [4], 8; in assay [3], 0.7.

Take `CSCC(=O)O[C@H]1C[C@H]2OC[C@@]2(OC(C)=O)[C@H]2[C@H](OC(=O)c3ccccc3)[C@]3(O)C[C@H](OC(=O)[C@H](O)[C@@H](NC(=O)c4ccccc4)c4ccccc4)C(C)=C([C@@H](OC(C)=O)C(=O)[C@]12C)C3(C)C` [PACLITAXEL C7 METHYLTHIOACETIC ACID ESTER]: the Ratio is given as 0.7 with MCF7 [2], 10 in assay [4] and 0.5 in assay [3].

`CC(=O)O[C@H]1C(=O)[C@]2(C)[C@@H](OC(=O)c3ccco3)C[C@H]3OC[C@@]3(OC(C)=O)[C@H]2[C@H](OC(=O)c2ccccc2)[C@]2(O)C[C@H](OC(=O)[C@H](O)[C@@H](NC(=O)c3ccccc3)c3ccccc3)C(C)=C1C2(C)C`: the Ratio is 22 in the assay with MCF7 [2], 27 in assay [4] and 1 in assay [3].

For `CC(=O)O[C@H]1C(=O)[C@]2(C)[C@@H](OC(=O)c3ccccc3)C[C@H]3OC[C@@]3(OC(C)=O)[C@H]2[C@H](OC(=O)c2ccccc2)[C@]2(O)C[C@H](OC(=O)[C@H](O)[C@@H](NC(=O)c3ccccc3)c3ccccc3)C(C)=C1C2(C)C` [PACLITAXEL C7 BENZOIC ACID ESTER], the Ratio with MCF7 [2] is reported as 8.3; in assay [4] it was 14; in assay [3] it was 1.1.

On to `CC(=O)O[C@H]1C(=O)[C@]2(C)[C@@H](OC(=O)c3ccc(C)cc3)C[C@H]3OC[C@@]3(OC(C)=O)[C@H]2[C@H](OC(=O)c2ccccc2)[C@]2(O)C[C@H](OC(=O)[C@H](O)[C@@H](NC(=O)c3ccccc3)c3ccccc3)C(C)=C1C2(C)C`, for which the Ratio with MCF7 [2] is given as 25; in assay [4] it was 31; in assay [3] it was 0.9.

As to `COc1ccc(C(=O)O[C@H]2C[C@H]3OC[C@@]3(OC(C)=O)[C@H]3[C@H](OC(=O)c4ccccc4)[C@]4(O)C[C@H](OC(=O)[C@H](O)[C@@H](NC(=O)c5ccccc5)c5ccccc5)C(C)=C([C@@H](OC(C)=O)C(=O)[C@]23C)C4(C)C)cc1`, the EC50 in the assay with MCF7 [1] is more than 80 nM. Besides, the values for the Ratio (in the assay with MCF7 [2]; in assay [3]) were 22 and 2.2, respectively.

`CC(=O)O[C@H]1C(=O)[C@]2(C)[C@@H](OC(=O)CC#N)C[C@H]3OC[C@@]3(OC(C)=O)[C@H]2[C@H](OC(=O)c2ccccc2)[C@]2(O)C[C@H](OC(=O)[C@H](O)[C@@H](NC(=O)c3ccccc3)c3ccccc3)C(C)=C1C2(C)C` [PACLITAXEL C7 CYANOACETIC ACID ESTER]: the EC50 in the assay with MCF7 [1] is more than 5000 nM. Also, the Ratio in the assay with MCF7 [2] amounted to 1.3; in assay [4], 8.

Regarding `CC(=O)OCC(=O)O[C@H]1C[C@H]2OC[C@@]2(OC(C)=O)[C@H]2[C@H](OC(=O)c3ccccc3)[C@]3(O)C[C@H](OC(=O)[C@H](O)[C@@H](NC(=O)c4ccccc4)c4ccccc4)C(C)=C([C@@H](OC(C)=O)C(=O)[C@]12C)C3(C)C` [PACLITAXEL C7 ACETOXYACETIC ACID ESTER], the Ratio was found to be 1.7 with MCF7 [2], 17 in assay [4] and 1.8 in assay [3].

Turning to `CC(=O)O[C@H]1C(=O)[C@]2(C)[C@@H](OC(=O)C3CC3)C[C@H]3OC[C@@]3(OC(C)=O)[C@H]2[C@H](OC(=O)c2ccccc2)[C@]2(O)C[C@H](OC(=O)[C@H](O)[C@@H](NC(=O)c3ccccc3)c3ccccc3)C(C)=C1C2(C)C` [PACLITAXEL C7 CYCLOPROPANECARBOXYLIC ACID ESTER], the EC50 in the assay on MCF7 [5] was more than 5000 nM. The Ratio amounted to 22 in the assay with MCF7 [2] and 35 in assay [4].

Consider `CC(=O)O[C@H]1C(=O)[C@]2(C)[C@@H](OC(=O)c3cccn3C)C[C@H]3OC[C@@]3(OC(C)=O)[C@H]2[C@H](OC(=O)c2ccccc2)[C@]2(O)C[C@H](OC(=O)[C@H](O)[C@@H](NC(=O)c3ccccc3)c3ccccc3)C(C)=C1C2(C)C`, for which the EC50 in the assay with MCF7 [1] is more than 80 nM. The Ratio in the assay with MCF7 [2] came out at 8.3; in assay [3], 1.2.

Turning to `CC(=O)O[C@H]1C(=O)[C@]2(C)[C@@H](OC(=O)C3CCCC3)C[C@H]3OC[C@@]3(OC(C)=O)[C@H]2[C@H](OC(=O)c2ccccc2)[C@]2(O)C[C@H](OC(=O)[C@H](O)[C@@H](NC(=O)c3ccccc3)c3ccccc3)C(C)=C1C2(C)C` [PACLITAXEL C7 CYCLOPENTANECARBOXYLIC ACID ESTER], the figures for the Ratio (in the assay on MCF7 [2]; in assay [4]; in assay [3]) were 1, 37 and 1.3, respectively.

With `COCC(=O)O[C@H]1C[C@H]2OC[C@@]2(OC(C)=O)[C@H]2[C@H](OC(=O)c3ccccc3)[C@]3(O)C[C@H](OC(=O)[C@H](O)[C@@H](NC(=O)c4ccccc4)c4ccccc4)C(C)=C([C@@H](OC(C)=O)C(=O)[C@]12C)C3(C)C` [PACLITAXEL C7 METHOXYACETIC ACID ESTER], the Ratio in the assay on MCF7 [2] was found to be 1; in assay [4], 14; in assay [3] it was 1.3.

For the compound `CC(=O)O[C@H]1C(=O)[C@]2(C)[C@@H](OC(=O)C(C)(C)C)C[C@H]3OC[C@@]3(OC(C)=O)[C@H]2[C@H](OC(=O)c2ccccc2)[C@]2(O)C[C@H](OC(=O)[C@H](O)[C@@H](NC(=O)c3ccccc3)c3ccccc3)C(C)=C1C2(C)C` [PACLITAXEL C7 TRIMETHYLACETIC ACID ESTER], the Ratio in the assay on MCF7 [2] is on record as 8.3; in assay [4], 3; in assay [3], 1.5.

On to `CC(=O)O[C@H]1C(=O)[C@]2(C)[C@@H](OC(=O)c3ccc(Cl)cc3)C[C@H]3OC[C@@]3(OC(C)=O)[C@H]2[C@H](OC(=O)c2ccccc2)[C@]2(O)C[C@H](OC(=O)[C@H](O)[C@@H](NC(=O)c3ccccc3)c3ccccc3)C(C)=C1C2(C)C`, for which the EC50 in the assay on MCF7 [1] is more than 80 nM. Further, the Ratio stood at 13 with MCF7 [2] and 1.6 in assay [3].

For `CC(=O)O[C@H]1C(=O)[C@]2(C)[C@@H](OC(=O)c3ccc([N+](=O)[O-])o3)C[C@H]3OC[C@@]3(OC(C)=O)[C@H]2[C@H](OC(=O)c2ccccc2)[C@]2(O)C[C@H](OC(=O)[C@H](O)[C@@H](NC(=O)c3ccccc3)c3ccccc3)C(C)=C1C2(C)C`, the EC50 with MCF7 [5] was more than 5000 nM. The results for the Ratio (with MCF7 [2]; in assay [4]) were 8.7 and 12, respectively.
